Measured values taken from patent US12583839B2, “PD-L1 antagonist compound” (ADLAI NORTYE BIOPHARMA CO., LTD., priority 2019, dated 2026).

Target: T1, PD-1/PD-L1 (Homo sapiens, UniProt Q9NZQ7)
T1 construct: 60535 (PD-1/NFAT-Reporter-Jurkat); host or cells: CHO cells expressing PD-L1; Jurkat cells expressing PD-1
Experiment: Detection of biological activity of PD-1/PD-L1 signaling inhibition at the cellular level (NFAT luciferase reporter, PD-1/NFAT-Reporter-Jurkat cells co-cultured with TCR activator/PD-L1-CHO cells)
Format: cell-based
Conditions: PD-1/NFAT-Reporter-Jurkat + TCR activator/PD-L1-CHO co-culture, 6 hours; Atezolizumab as positive control
Procedure, shortened: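 CHO cells expressing PD-L1 and a TCR activator were seeded overnight at 37° C, pre-treated with compound for 30 minutes, then co-cultured 6 hours with Jurkat cells carrying PD-1 and an NFAT-luciferase reporter. Luminescence was read, and inhibition % was normalised between 0.1% DMSO and about 10 nM atezolizumab controls.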

T1 sequence (Q9NZQ7 19-290): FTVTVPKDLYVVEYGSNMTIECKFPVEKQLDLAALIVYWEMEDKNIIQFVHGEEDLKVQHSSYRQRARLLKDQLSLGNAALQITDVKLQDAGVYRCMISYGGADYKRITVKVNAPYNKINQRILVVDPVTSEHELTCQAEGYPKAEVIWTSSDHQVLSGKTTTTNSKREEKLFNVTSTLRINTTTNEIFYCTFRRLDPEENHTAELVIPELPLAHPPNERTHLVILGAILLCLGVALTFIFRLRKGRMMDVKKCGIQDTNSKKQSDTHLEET

| SMILES | EC50 [nM] |
| --- | --- |
| COc1cc(-c2cccc(-c3c(Cl)ccc4c3cnn4Cc3cc(OC)c(CN[C@@H](CO)C(=O)O)cc3Cl)c2Cl)ccc1CNC[C@@H]1CCC(=O)N1 [Compound 154] | 393 |
| COc1cc(Cn2ncc3c(-c4cccc(-c5cc(Cl)c(CNC[C@@H]6CCC(=O)N6)c(OC)c5)c4Cl)cccc32)c(Cl)cc1CN(C)CC1CCC(C(=O)O)CC1 (stereo partly drawn) [Compound 155] | 145 |
| COc1cc(-c2cccc(-c3ccc(Cl)c4c3cnn4Cc3cc(OC)c(CN[C@@H](CO)C(=O)O)cc3Cl)c2Cl)ccc1CNC[C@@H]1CCC(=O)N1 [Compound 158] | 1010 |
| CCN(Cc1cc(Cl)c(Cn2ncc3c(-c4cccc(-c5cc(F)c(CNC[C@@H]6CCC(=O)N6)c(OC)c5)c4Cl)cccc32)cc1OC)C12CCC(C(=O)O)(CC1)CC2 [Compound 159] | 37 |
| COc1cc(Cn2ncc3c(-c4cccc(-c5cc(F)c(CNC[C@@H]6CCC(=O)N6)c(OC)c5)c4Cl)cccc32)c(Cl)cc1CN(C)C12CCC(CC(=O)O)(CC1)CC2 [Compound 160] | 46 |
| COc1cc(Cn2ncc3c(-c4cccc(-c5cc(F)c(CNC[C@@H]6CCC(=O)N6)c(OC)c5)c4Cl)cccc32)c(Cl)cc1CN(C)[C@H]1CC[C@H](O)CC1 [Compound 162] | 44 |
| COc1cc(-c2cccc(-c3cccc4c3cnn4Cc3nc(OC)c(CN(C)[C@H]4CC[C@H](C(=O)O)CC4)cc3Cl)c2Cl)cc(F)c1CNC[C@@H]1CCC(=O)N1 [Compound 163] | 26 |
| COc1cc(Cn2ncc3c(-c4cccc(-c5cc(F)c(CNC[C@H]6CCC(=O)N6)c(OC)c5)c4Cl)cccc32)c(Cl)cc1CN(C)C12CCC(C(=O)O)(CC1)CC2 [Compound 167] | 53 |
| COc1nc(-c2cccc(-c3cccc4c3cnn4Cc3nc(OC)c(CN(C)C45CCC(C(=O)O)(CC4)CC5)cc3Cl)c2C)ccc1CNC[C@@H]1CCC(=O)N1 [Compound 169] | 59 |
| COc1cc(Cn2ncc3c(-c4cccc(-c5cnc(CNC[C@@H]6CCC(=O)N6)c(OC)n5)c4C)cccc32)c(Cl)cc1CN(C)C12CCC(C(=O)O)(CC1)CC2 [Compound 170] | 265 |
| COc1cc(Cn2ncc3c(-c4cccc(-c5cc(F)c(CNC[C@@H]6CCC(=O)N6)c(OC)c5)c4Cl)cccc32)c(Cl)cc1CN(CCO)[C@H]1CC[C@H](C(=O)O)CC1 [Compound 171] | 40 |
| COc1cc(-c2cccc(-c3cccc4c3cnn4Cc3cc(N)c(CN(C)[C@H]4CC[C@H](C(=O)O)CC4)cc3Cl)c2Cl)cc(F)c1CNC[C@@H]1CCC(=O)N1 [Compound 173] | 222 |

Further compounds by falling EC50, results first:

| EC50 [nM] | SMILES |
| --- | --- |
| 105 | COc1cc(Cn2ncc3c(-c4cccc(-c5ccc(CNC[C@@H]6CCC(=O)N6)c(OC)n5)c4C)cccc32)c(Cl)cc1CN(C)C12CCC(C(=O)O)(CC1)CC2 [Compound 164] |
| 90 | COc1cc(Cn2ncc3c(-c4cccc(-c5ccc(CNC[C@@H]6CCC(=O)N6)c(OC)n5)c4Cl)cccc32)c(Cl)c(F)c1CN(C)C12CCC(C(=O)O)(CC1)CC2 [Compound 157] |
| 75 | COc1cc(Cn2ncc3c(-c4cccc(-c5cc(F)c(CNC[C@@H]6CCC(=O)N6)c(OC)c5)c4C)cccc32)c(Cl)cc1CN(C)C12CCC(C(=O)O)(CC1)CC2 [Compound 161] |
| 69 | COc1cc(Cn2ncc3c(-c4cccc(-c5cc(F)c(CNC[C@@H]6CCCC(=O)N6)c(OC)c5)c4Cl)cccc32)c(Cl)cc1CN(C)C12CCC(C(=O)O)(CC1)CC2 [Compound 168] |
| 49 | COc1cc(-c2cccc(-c3cccc4c3cnn4Cc3nc(OC)c(CN(C)C45CCC(C(=O)O)(CC4)CC5)cc3Cl)c2C)cc(F)c1CNC[C@@H]1CCC(=O)N1 [Compound 166] |
| 32 | COc1cc(-c2cccc(-c3cccc4c3cnn4Cc3nc(OC)c(CN(C)C45CCC(C(=O)O)(CC4)CC5)cc3Cl)c2Cl)cc(F)c1CNC[C@@H]1CCCC(=O)N1 [Compound 172] |
